Like-named read-outs stand apart in the source and are kept apart here.
Assays:
MCF7 Breast Tumour Cell = assay: MCF7 breast tumour cell growth inhibition; assay type: cell-based; details: Homo sapiens
PI3K-p110β = PI3K-p110β (Homo sapiens, UniProt P42338); assay: Biochemical PI3K-p110β inhibition
PI3K-p110α = PI3K-p110α (Homo sapiens, UniProt P42336); assay: PI3K-p110α inhibition; assay type: biochemical
PI3K-p110δ = PI3K-p110δ (Homo sapiens, UniProt O00329); assay: PI3K-p110δ inhibition; assay type: biochemical
Chain of PI3K-p110δ (O00329 whole entry): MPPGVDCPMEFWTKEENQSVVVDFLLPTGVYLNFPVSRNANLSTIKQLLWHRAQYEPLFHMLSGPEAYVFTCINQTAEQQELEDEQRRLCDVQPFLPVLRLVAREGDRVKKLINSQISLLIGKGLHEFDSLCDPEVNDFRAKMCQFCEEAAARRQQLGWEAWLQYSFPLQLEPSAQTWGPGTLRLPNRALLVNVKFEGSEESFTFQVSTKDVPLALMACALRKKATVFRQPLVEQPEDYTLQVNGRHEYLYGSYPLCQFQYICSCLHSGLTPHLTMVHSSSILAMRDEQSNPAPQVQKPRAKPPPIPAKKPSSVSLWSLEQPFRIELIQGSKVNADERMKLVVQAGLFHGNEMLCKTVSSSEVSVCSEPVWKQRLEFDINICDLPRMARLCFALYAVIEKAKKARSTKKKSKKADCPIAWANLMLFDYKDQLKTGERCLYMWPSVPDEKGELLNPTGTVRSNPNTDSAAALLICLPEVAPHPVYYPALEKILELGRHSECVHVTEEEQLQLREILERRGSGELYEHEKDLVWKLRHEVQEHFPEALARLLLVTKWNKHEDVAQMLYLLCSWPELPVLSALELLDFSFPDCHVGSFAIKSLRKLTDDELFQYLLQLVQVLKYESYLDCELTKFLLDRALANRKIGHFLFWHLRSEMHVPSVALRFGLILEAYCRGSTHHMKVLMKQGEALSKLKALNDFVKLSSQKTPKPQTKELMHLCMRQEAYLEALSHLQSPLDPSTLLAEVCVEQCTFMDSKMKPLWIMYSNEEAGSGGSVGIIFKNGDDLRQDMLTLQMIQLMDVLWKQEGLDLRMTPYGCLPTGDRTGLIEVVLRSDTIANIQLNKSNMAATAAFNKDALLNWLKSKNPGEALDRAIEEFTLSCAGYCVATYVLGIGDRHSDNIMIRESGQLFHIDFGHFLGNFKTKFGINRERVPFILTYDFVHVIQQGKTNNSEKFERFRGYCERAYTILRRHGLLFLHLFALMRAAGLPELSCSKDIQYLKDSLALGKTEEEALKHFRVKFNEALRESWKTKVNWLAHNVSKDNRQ
Chain of PI3K-p110δ (P27986 whole entry partner): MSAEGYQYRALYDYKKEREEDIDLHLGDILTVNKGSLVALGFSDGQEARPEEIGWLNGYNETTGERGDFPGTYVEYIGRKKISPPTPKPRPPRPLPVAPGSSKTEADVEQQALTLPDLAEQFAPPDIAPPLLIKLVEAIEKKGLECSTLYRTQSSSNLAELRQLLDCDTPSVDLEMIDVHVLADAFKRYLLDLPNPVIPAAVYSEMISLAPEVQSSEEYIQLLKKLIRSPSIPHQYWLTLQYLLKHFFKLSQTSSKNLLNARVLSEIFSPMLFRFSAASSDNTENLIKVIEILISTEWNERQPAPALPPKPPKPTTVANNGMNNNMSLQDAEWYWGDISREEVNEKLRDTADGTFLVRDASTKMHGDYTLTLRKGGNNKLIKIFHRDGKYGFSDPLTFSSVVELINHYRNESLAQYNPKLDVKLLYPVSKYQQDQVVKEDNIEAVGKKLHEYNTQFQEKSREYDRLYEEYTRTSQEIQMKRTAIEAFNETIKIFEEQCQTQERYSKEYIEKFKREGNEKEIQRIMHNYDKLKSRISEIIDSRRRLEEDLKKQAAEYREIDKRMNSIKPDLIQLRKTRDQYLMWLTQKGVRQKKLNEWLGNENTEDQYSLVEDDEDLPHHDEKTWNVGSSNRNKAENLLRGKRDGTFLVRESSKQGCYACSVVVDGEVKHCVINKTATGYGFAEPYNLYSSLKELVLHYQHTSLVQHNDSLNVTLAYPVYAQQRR

PI3K-p110γ = PI3K-p110γ (Homo sapiens, UniProt P48736); assay: PI3K-p110γ inhibition; assay type: biochemical
Chain of PI3K-p110γ (P48736 whole entry): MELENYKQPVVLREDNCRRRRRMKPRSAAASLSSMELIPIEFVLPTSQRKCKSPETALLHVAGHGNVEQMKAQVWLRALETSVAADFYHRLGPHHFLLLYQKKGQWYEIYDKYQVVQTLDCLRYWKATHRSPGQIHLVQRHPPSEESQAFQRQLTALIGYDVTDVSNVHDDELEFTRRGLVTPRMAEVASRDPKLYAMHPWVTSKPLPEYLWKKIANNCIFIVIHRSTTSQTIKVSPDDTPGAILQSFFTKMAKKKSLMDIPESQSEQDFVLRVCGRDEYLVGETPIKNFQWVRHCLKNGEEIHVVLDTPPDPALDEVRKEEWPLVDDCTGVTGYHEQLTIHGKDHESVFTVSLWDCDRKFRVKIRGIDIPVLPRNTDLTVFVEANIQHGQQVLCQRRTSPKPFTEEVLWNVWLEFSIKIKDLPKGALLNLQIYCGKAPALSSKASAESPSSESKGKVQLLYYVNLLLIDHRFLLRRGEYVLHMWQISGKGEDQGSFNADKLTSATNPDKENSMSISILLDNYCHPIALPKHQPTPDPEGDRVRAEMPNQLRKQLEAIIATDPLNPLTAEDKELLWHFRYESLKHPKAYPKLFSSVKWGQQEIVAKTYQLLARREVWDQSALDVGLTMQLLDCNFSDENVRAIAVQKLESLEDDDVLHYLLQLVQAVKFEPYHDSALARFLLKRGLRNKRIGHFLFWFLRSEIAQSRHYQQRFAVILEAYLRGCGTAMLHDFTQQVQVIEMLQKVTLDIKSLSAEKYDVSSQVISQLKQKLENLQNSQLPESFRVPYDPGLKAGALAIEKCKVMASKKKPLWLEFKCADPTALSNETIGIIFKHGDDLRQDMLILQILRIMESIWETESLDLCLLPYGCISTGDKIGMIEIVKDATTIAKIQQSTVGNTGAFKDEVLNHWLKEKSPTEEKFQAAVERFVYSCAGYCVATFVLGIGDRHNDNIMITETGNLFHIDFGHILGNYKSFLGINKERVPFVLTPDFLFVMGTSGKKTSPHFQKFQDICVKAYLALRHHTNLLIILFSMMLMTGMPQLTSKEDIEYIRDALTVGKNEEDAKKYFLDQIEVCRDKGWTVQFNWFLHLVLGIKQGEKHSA

[1] = read-out: Biochemical IC50, PI3K-p110β

Chain of PI3K-p110β (P42338 whole entry): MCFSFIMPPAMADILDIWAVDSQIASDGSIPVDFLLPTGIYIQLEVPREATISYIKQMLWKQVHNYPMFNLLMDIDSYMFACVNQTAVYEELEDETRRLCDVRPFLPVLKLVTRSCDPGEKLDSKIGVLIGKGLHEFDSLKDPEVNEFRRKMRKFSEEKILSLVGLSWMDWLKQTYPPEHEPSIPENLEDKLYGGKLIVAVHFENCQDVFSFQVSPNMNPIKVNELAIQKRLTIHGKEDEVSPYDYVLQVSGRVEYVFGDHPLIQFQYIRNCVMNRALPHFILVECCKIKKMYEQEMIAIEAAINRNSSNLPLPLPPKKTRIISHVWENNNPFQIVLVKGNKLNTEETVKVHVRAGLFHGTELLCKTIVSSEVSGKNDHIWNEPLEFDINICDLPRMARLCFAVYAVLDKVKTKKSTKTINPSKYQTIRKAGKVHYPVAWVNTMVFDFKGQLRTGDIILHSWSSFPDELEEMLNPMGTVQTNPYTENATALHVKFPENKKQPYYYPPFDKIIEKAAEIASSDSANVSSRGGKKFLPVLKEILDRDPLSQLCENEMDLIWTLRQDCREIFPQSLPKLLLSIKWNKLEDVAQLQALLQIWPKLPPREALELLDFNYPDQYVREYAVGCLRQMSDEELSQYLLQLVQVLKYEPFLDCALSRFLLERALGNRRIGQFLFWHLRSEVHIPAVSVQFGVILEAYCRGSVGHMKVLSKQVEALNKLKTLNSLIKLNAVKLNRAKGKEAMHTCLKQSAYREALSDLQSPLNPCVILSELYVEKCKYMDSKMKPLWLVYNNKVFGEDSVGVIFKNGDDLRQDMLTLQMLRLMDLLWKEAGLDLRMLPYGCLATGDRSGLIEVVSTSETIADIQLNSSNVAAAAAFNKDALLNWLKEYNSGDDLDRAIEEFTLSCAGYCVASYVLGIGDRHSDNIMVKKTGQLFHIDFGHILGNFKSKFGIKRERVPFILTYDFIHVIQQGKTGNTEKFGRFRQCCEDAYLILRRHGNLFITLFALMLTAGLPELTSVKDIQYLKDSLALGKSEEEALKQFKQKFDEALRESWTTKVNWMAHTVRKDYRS
Chain of PI3K-p110β (P27986 whole entry partner): as the sequence (P27986 whole entry partner) above
Chain of PI3K-p110α (P42336 whole entry): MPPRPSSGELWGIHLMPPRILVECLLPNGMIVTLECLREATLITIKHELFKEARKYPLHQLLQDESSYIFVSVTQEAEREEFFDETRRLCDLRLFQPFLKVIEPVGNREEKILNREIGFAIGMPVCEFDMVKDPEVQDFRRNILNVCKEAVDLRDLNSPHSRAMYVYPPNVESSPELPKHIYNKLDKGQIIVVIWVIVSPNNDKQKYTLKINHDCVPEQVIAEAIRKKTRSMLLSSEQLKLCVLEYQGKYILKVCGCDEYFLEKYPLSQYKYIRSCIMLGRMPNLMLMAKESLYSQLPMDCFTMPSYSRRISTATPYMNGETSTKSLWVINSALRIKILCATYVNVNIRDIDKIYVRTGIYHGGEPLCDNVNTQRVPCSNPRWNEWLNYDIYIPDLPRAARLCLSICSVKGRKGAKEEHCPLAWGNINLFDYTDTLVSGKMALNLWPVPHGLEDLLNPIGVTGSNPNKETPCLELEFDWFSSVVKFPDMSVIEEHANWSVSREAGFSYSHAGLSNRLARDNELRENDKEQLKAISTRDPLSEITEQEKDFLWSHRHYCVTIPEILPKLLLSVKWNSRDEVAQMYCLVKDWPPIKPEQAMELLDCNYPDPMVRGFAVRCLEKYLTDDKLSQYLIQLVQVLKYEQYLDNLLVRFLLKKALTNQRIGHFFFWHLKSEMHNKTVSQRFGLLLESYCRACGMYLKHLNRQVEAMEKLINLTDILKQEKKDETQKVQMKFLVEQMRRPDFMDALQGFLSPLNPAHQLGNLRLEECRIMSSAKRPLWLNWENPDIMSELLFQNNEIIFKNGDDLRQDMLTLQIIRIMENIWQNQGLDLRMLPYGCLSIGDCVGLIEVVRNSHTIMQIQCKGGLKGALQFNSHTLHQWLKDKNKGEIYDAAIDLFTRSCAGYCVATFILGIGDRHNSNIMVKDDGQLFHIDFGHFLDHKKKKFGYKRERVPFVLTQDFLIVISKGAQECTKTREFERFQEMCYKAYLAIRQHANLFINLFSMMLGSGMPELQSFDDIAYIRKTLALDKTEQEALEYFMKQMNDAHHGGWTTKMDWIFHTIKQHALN
Chain of PI3K-p110α (P27986 whole entry partner): as the sequence (P27986 whole entry partner) above

Row | IC50 (MCF7 Breast Tumour Cell) [µM] | IC50 (PI3K-p110β; [1]) [µM] | IC50 (PI3K-p110α) [µM] | IC50 (PI3K-p110δ) [µM] | IC50 (PI3K-p110β; isoform panel, second part of table, read-out: IC50 PI3K-p110β) [µM] | IC50 (PI3K-p110γ) [µM] | Compound
1 | 6.06 | 0.69 | – | – | – | – | Nc1ccc(-c2cc3ncccc3c(N3CCOCC3)n2)cc1Cl [E, 2-Chloro-4-(5-morpholin-4-yl-[1,6]naphthyridin-7-yl)-phenylamine]
2 | 10.9 | 3.7 | – | – | – | – | Nc1ccc(-c2cc3ncccc3c(N3CCOCC3)n2)c(Cl)c1 [F, 3-Chloro-4-(5-morpholin-4-yl-[1,6]naphthyridin-7-yl)-phenylamine]
3 | – | – | > 10 | 0.26 | 3.4 | > 10 | c1cc(-c2cc3ncccc3c(N3CCOCC3)n2)c2cc[nH]c2c1 [G, 7-(1H-Indol-4-yl)-5-morpholin-4-yl-1,6-naphthyridine]

From patent US9266879B2, “Naphthridine derivatives as PI3K inhibitors for the treatment of cancer and immune-inflammatory disease” (Karus Therapeutic Limited, priority 2010, dated 2016)
